The record followed here is article PMC4685742 (Nature chemical biology, 2015).

Each structure is given as a SMILES string.

Assay [1] concerns the target T1, iridoid synthase (CrISY) (Catharanthus roseus, UniProt K7WDL7, D87N). Briefly: co-crystal structure at […] Å. Type of assay: binding.
In assay [2] the target is T2, iridoid synthase (CrISY) G150A (Catharanthus roseus, UniProt K7WDL7, D87N/G150A).
T2 sequence (K7WDL7 23-388 D87N/G150A): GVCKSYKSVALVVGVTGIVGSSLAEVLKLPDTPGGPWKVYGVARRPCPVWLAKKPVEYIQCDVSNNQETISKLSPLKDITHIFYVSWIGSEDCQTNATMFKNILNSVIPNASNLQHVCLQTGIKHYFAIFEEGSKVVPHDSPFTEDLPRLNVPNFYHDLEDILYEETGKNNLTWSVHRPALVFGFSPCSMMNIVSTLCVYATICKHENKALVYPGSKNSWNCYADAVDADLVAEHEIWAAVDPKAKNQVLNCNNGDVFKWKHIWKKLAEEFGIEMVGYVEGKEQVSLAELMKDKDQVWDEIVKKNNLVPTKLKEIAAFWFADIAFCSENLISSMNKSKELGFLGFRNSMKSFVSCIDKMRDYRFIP
The assay can be described thus: co-crystal structure. Type of assay: binding.

Assay [3] addresses T1, iridoid synthase (CrISY). Briefly: co-crystal structure at […] Å. Type of assay: biochemical.

T1 sequence (K7WDL7 23-388 D87N): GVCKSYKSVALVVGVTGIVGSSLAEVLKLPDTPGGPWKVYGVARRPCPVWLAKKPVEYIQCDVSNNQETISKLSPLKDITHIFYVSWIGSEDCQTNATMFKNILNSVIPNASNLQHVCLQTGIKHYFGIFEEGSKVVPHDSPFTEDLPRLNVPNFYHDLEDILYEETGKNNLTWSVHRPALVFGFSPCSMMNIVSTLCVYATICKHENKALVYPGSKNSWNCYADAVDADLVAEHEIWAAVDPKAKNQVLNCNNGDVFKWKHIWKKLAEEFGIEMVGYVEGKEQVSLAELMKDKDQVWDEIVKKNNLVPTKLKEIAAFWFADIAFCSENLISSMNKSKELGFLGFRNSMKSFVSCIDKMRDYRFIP

In the case of `NC(=O)c1ccc[n+]([C@@H]2O[C@H](COP(=O)(O)OP(=O)(O)OC[C@H]3O[C@@H](n4cnc5c(N)ncnc54)[C@H](OP(=O)(O)O)[C@@H]3O)[C@@H](O)[C@H]2O)c1` [NADP+], the “co-crystal structure at 1.40 Å” value on iridoid synthase (CrISY) [1] was “CrISY’s structure was solved in its apo form and with NADP^+ bound (PDB codes 5DCW and 5DCU, respectively)”. Further, in assay [2], the co-crystal structure entry is “The structure of CrISY^G150A was solved with NADP^+ bound (PDB code 5DCY)”.
Regarding `CC(C)=CCC/C(C)=C/C(=O)O` [GEA, geranic acid], the Ki on iridoid synthase (CrISY) [3] was about 4 µM.

Broadly, the Ki is the equilibrium dissociation constant of an inhibitor or competing ligand from its target. Higher therefore signals lower affinity.
